In the OligoGym collection:
HELM strings list units from the 5' end as sugar, base in round brackets, then linkage (d deoxyribose, r ribose, m 2'-O-methyl, p phosphodiester). Strings are as the collection lists them; they lack the last nucleoside at the 3' end of the tested compound. [moe] = 2'-O-(2-methoxyethyl) (MOE); [sp] = phosphorothioate linkage; [m5C] = 5-methylcytosine

target: PRNP; assay: mouse, dose not given; conditions: ASO

Substance | 3 h FOB score [score 0-7]
RNA1{[moe](A)[sp].[moe](T)p.[moe]([m5C])p.[moe](A)p.[moe](T)[sp].d(T)[sp].d(T)[sp].d(T)[sp].d(G)[sp].d([m5C])[sp].d([m5C])[sp].d(A)[sp].d(T)[sp].d(T)[sp].d(T)[sp].[moe](A)p.[moe](T)p.[moe]([m5C])[sp].[moe](T)}$$$$ (last 3' nucleoside missing) | 3.25
RNA1{[moe](T)[sp].[moe](G)p.[moe](T)p.[moe]([m5C])p.[moe](A)p.d(G)[sp].d(T)[sp].d(T)[sp].d(T)[sp].d(T)[sp].d(T)[sp].d([m5C])[sp].d([m5C])[sp].d([m5C])[sp].[moe]([m5C])[sp].[moe](A)p.[moe]([m5C])p.[moe](A)}$$$$ (last 3' nucleoside missing) | 0
RNA1{[moe](A)[sp].[moe](G)p.[moe](T)p.[moe](T)p.[moe]([m5C])[sp].d(T)[sp].d(T)[sp].d(T)[sp].d(T)[sp].d([m5C])[sp].d(T)[sp].d(T)[sp].d(T)[sp].d(G)[sp].d([m5C])[sp].[moe](A)p.[moe]([m5C])p.[moe](A)[sp].[moe]([m5C])}$$$$ (last 3' nucleoside missing) | 5.25
RNA1{[moe](A)[sp].[moe](G)p.[moe](A)p.[moe](G)p.[moe]([m5C])[sp].d(A)[sp].d(A)[sp].d(T)[sp].d(A)[sp].d(T)[sp].d(A)[sp].d(T)[sp].d(T)[sp].d([m5C])[sp].d(A)[sp].[moe]([m5C])p.[moe]([m5C])p.[moe](A)[sp].[moe](A)}$$$$ (last 3' nucleoside missing) | 0
RNA1{[moe](A)[sp].[moe](T)p.[moe](G)p.[moe](G)p.[moe]([m5C])[sp].d(A)[sp].d([m5C])[sp].d(T)[sp].d(T)[sp].d(T)[sp].d([m5C])[sp].d(T)[sp].d(T)[sp].d(T)[sp].d(T)[sp].[moe](T)p.[moe](A)p.[moe](T)[sp].[moe](T)}$$$$ (last 3' nucleoside missing) | 1
RNA1{[moe](A)[sp].[moe](T)p.[moe](T)p.[moe](T)p.[moe](A)[sp].d([m5C])[sp].d(T)[sp].d(T)[sp].d(T)[sp].d(T)[sp].d([m5C])[sp].d(A)[sp].d(G)[sp].d([m5C])[sp].d(T)[sp].[moe](G)p.[moe]([m5C])p.[moe]([m5C])[sp].[moe](T)}$$$$ (last 3' nucleoside missing) | 3
RNA1{[moe]([m5C])[sp].[moe](T)p.[moe](T)p.[moe](A)p.[moe](T)p.d(T)[sp].d(A)[sp].d(T)[sp].d(T)[sp].d([m5C])[sp].d(A)[sp].d(T)[sp].d(G)[sp].d(T)[sp].[moe](T)p.[moe]([m5C])p.[moe](T)[sp].[moe]([m5C])}$$$$ (last 3' nucleoside missing) | 0
RNA1{[moe](G)[sp].[moe]([m5C])p.[moe](A)p.[moe](G)p.[moe](A)[sp].d(A)[sp].d(A)[sp].d(G)[sp].d(T)[sp].d(A)[sp].d(G)[sp].d([m5C])[sp].d(T)[sp].d(A)[sp].d(T)[sp].[moe]([m5C])p.[moe](A)p.[moe](T)[sp].[moe](T)}$$$$ (last 3' nucleoside missing) | 4.25
RNA1{[moe](A)[sp].[moe]([m5C])p.[moe](T)p.[moe](T)p.[moe](G)[sp].d(T)[sp].d([m5C])[sp].d(A)[sp].d(G)[sp].d(T)[sp].d(T)[sp].d(T)[sp].d(T)[sp].d(T)[sp].d([m5C])[sp].[moe]([m5C])p.[moe]([m5C])p.[moe]([m5C])[sp].[moe](A)}$$$$ (last 3' nucleoside missing) | 1
RNA1{[moe](G)[sp].[moe](T)p.[moe](T)p.[moe](G)p.[moe](T)[sp].d(G)[sp].d(A)[sp].d([m5C])[sp].d(A)[sp].d(A)[sp].d(T)[sp].d(A)[sp].d(T)[sp].d(T)[sp].d(T)[sp].[moe](A)p.[moe]([m5C])p.[moe](T)[sp].[moe]([m5C])}$$$$ (last 3' nucleoside missing) | 0
